According to ChEMBL document CHEMBL1201862, “PubChem BioAssay data set” (2004):
Blank lines part the entries; values can stand above or below the compound they belong to. The source made the active and inactive calls.

What was measured:
[1] = target: T1, Estrogen receptor beta (Homo sapiens, UniProt Q92731); assay: blockers of SRC-3 recruitment to ERβ – biochemical, ELISA, streptavidin-HRP readout, orthogonal assay, confirmation (AID 1060)
[2] = target: T2, Polyadenylate-binding protein 1 (Homo sapiens, UniProt P11940); assay: MLLE binding blockers, Cy5 peptide tracer – biochemical, fluorescence polarization, Cy5-PAM2 peptide, secondary, miRNA deadenylation inhibitor project, dose response (AID 602260); type: functional; settings: read-out: IC50_Mean
T2 sequence (P11940 whole entry): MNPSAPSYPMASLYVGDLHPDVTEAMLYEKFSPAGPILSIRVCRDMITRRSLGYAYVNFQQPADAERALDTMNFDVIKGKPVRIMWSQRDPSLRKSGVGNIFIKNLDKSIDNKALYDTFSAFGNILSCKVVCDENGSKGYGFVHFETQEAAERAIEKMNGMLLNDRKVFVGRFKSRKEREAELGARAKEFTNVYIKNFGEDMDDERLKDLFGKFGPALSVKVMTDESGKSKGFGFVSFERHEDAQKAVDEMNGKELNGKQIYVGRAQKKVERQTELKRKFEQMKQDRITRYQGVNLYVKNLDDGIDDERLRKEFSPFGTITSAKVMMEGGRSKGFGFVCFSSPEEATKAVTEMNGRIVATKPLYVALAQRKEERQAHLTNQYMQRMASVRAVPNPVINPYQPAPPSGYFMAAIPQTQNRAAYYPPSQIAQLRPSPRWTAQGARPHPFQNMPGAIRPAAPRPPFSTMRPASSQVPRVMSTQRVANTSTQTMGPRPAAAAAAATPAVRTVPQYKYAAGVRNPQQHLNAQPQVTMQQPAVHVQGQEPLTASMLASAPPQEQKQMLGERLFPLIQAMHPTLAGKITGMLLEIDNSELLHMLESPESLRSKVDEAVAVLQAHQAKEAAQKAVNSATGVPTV

[3] = target: T1, Estrogen receptor beta
[4] = target: T2, Polyadenylate-binding protein 1; assay: MLLE domain peptide-binding blockers, IC50 – biochemical, fluorescence polarization, FITC-PAM2 peptide, dose response (AID 602259); type: functional; settings: read-out: IC50_Mean
[5] = target: T3, Estrogen receptor (Homo sapiens, UniProt P03372);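 also: potency for inhibiting coactivator peptide recruitment to the receptor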
T3 sequence (P03372 whole entry): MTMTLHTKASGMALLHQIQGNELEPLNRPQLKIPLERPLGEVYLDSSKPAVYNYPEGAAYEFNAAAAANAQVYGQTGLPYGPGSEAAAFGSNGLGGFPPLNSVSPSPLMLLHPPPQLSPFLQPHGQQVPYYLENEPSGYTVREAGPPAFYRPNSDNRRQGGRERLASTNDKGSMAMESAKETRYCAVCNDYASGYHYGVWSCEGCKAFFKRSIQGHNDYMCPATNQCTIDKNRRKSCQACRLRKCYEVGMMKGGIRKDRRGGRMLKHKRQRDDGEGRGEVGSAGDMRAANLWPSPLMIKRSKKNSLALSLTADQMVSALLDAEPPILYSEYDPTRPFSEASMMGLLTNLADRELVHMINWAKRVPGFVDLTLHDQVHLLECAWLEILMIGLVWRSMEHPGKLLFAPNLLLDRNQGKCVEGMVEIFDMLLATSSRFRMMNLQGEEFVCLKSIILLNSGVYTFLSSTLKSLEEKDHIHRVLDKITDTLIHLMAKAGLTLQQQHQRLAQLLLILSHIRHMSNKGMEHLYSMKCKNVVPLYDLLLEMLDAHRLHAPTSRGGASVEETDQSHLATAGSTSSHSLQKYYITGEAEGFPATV

[6] = NIH3T3 cell viability loss – ATP luminescence, mouse fibroblasts, counter-screen, dose response (AID 2010); type: functional, cell-based;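 also: cells exposed to compound for about 90 hours before reading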
[7] = Trypanosoma cruzi growth suppression in host cells – NIH3T3 host cells, beta-gal luminescence, confirmation (AID 2044); type: functional, cell-based;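 also: intracellular parasites grown in NIH/3T3 mouse fibroblasts as host cells; luminescent beta-galactosidase reporter signal from transgenic T. cruzi replicating inside host cells; inhibitors lower the luminescence signal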
[8] = cells
[9] = target: T4, Caspase-3 (Homo sapiens, UniProt P42574); type: functional;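 also: Dose-response selectivity test against caspase-3 for candidate inhibitors of sentrin-specific proteases (SENPs)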
T4 sequence (P42574 whole entry): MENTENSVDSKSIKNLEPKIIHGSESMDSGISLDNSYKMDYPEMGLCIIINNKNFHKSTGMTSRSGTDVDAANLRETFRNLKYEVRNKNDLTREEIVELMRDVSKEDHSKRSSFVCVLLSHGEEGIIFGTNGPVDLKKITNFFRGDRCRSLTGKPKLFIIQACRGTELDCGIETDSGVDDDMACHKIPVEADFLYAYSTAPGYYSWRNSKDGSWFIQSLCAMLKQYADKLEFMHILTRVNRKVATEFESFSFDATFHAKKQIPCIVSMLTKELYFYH

[10] = target: T5, Sentrin-specific protease 8 (Homo sapiens, UniProt Q96LD8); type: functional;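 also: luminescence read-out of SENP8 inhibition, dose-response confirmation following an ultra-high-throughput screen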
T5 sequence (Q96LD8 whole entry): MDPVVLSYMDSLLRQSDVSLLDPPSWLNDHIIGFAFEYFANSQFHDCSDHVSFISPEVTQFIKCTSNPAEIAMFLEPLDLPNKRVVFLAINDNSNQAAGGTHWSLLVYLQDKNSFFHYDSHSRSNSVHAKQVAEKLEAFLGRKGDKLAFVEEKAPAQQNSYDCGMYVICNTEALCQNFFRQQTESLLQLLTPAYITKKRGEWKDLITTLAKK

[11] = blockers of bursicon-stimulated LGR2 cAMP reporter – cell-based, HEK293, CRE-luciferase reporter, cherry pick, set 2, dose response (AID 743343); type: functional;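 also: transfected cells were stimulated with diluted bursicon conditioned medium after compound addition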
[12] = toxicity toward HepG2 liver cells – cell-based, plate reader, cherry-pick, antagonist series, cytotoxicity control, dose response (AID 743416); type: functional
[13] = target: T6, Sentrin-specific protease 6 (Homo sapiens, UniProt Q9GZR1); type: functional;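 also: Luminescence-based dose-response confirmatory assay of SENP6 inhibition, following up an ultra-high-throughput screen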
T6 sequence (Q9GZR1 whole entry): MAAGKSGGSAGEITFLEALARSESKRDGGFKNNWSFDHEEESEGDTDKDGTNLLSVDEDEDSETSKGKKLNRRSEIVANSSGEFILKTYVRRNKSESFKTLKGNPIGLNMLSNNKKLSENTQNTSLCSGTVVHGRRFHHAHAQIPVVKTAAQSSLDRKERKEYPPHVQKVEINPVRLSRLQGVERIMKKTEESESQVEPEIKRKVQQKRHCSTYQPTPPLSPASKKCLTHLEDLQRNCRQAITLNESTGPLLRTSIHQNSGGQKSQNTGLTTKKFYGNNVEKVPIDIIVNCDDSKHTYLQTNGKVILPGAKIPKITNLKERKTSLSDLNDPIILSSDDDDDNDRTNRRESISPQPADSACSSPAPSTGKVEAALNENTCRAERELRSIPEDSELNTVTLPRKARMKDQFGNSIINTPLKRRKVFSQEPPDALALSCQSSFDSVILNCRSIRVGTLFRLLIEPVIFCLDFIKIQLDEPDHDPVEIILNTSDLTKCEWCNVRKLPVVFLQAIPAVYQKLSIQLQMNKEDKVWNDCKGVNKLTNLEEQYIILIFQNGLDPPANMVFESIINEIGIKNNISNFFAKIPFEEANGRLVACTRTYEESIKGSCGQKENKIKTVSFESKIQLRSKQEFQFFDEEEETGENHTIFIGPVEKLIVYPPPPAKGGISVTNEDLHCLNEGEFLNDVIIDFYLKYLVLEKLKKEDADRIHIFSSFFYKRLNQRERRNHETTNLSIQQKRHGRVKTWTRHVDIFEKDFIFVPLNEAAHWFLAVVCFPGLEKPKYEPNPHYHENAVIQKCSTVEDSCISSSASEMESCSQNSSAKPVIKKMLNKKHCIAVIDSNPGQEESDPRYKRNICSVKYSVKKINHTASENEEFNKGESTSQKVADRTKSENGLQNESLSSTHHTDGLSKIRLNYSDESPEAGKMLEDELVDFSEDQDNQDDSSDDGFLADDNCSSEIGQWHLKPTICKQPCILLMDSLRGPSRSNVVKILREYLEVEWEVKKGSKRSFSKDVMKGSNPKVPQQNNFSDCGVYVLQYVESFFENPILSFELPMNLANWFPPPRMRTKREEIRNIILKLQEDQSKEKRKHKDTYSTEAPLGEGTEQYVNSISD

[14] = blockade of melanocortin 4 receptor signaling – cell-based, plate reader, cherry pick, counter-screen for LGR2 antagonist project, dose response (AID 743444); type: functional;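 also: transfected HEK 293 cells stimulated with alpha-MSH peptide; potency of inhibitors of the alpha-MSH evoked signal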
[15] = A549 cell cytotoxicity, dose response, cytotoxicity control, plate reader, cherry-pick, antagonist series (AID 743412); type: functional, cell-based
[16] = target: T7, Sentrin-specific protease 7 (Homo sapiens, UniProt Q9BQF6); type: functional;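 also: Luminescence-based dose-response confirmation of ultra-high-throughput screening hits, measuring inhibition of SENP7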
T7 sequence (Q9BQF6 whole entry): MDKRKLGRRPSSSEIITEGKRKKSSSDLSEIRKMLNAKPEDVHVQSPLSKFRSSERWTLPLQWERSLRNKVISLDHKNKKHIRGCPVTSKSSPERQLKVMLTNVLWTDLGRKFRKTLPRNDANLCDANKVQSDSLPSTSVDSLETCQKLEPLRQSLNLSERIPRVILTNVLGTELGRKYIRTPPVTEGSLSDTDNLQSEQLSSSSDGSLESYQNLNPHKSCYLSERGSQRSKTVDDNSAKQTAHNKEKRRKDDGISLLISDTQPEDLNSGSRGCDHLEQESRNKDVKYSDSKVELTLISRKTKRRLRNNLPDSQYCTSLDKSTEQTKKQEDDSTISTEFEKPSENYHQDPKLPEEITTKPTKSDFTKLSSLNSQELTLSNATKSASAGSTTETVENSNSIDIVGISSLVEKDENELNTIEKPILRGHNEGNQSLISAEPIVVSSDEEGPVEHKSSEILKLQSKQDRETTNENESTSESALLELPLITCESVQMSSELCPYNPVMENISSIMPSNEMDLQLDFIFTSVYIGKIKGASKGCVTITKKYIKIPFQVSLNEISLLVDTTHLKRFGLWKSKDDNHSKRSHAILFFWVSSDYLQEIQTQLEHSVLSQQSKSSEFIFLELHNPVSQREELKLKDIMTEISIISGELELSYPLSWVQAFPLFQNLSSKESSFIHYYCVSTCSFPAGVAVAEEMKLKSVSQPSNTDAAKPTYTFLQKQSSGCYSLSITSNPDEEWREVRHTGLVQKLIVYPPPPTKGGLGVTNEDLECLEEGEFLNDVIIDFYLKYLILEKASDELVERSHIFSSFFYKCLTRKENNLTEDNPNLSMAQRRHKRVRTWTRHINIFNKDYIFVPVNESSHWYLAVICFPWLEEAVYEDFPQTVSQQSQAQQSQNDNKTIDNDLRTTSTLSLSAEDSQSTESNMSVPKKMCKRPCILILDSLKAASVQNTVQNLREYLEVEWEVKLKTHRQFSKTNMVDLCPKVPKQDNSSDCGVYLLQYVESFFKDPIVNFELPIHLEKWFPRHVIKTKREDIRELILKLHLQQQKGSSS

[17] = target: Paired box protein Pax-8 (Homo sapiens, UniProt Q06710); assay: PAX8 transcriptional activity inhibition in RMG-I – RMG-I cells, luciferase, cherry-pick, dose response (AID 687027); type: functional, cell-based;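 also: luciferase reporter driven by Pax8 target thyroperoxidase promoter measured by SteadyGlo luminescence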
Sequence of Paired box protein Pax-8 (Q06710 whole entry): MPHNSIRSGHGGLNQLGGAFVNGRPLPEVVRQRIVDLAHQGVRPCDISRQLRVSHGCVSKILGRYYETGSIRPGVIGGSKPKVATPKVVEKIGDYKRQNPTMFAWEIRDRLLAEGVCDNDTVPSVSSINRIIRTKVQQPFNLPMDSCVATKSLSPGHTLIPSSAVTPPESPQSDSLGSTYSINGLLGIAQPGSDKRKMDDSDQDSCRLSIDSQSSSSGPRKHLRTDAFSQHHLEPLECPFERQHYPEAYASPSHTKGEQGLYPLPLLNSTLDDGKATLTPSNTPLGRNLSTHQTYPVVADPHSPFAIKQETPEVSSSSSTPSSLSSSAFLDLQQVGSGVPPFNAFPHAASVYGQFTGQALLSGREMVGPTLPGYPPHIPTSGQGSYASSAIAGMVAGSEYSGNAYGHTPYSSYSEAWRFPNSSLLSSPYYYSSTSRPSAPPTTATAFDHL

[18] = OVCAR-3 cell viability loss – plate reader, dry powder samples, PAX8 inhibitor project, dose response (AID 743044); type: functional, cell-based
[19] = intracellular Trypanosoma cruzi inhibitors in host cells – cell-based, plate reader, cherry-pick samples, set 3, dose response (AID 651818); type: functional;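 also: compounds incubated with infected cells for about four days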
[20] = general cell-killing toxicity readout – plate reader, dry powder samples, cytotoxicity control for PAX8 inhibitor project, dose response (AID 743021); type: functional, cell-based

T1 sequence (Q92731 whole entry): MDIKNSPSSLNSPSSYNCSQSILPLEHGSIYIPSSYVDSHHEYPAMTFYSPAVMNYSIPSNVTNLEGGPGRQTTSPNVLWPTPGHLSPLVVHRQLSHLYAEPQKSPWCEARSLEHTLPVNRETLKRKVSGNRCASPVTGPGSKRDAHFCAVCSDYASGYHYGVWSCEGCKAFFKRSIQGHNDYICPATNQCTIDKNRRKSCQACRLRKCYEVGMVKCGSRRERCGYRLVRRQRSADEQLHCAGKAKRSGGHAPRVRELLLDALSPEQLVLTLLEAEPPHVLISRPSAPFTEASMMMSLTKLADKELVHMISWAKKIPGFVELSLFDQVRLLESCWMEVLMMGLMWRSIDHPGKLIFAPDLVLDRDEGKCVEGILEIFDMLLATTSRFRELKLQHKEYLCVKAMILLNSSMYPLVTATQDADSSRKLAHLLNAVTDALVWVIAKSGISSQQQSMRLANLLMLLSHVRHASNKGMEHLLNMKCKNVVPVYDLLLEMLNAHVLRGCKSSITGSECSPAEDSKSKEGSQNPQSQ

- IC50 [1]: 101 µM (not active)
- IC50 [2]: > 66 µM (inactive)
- IC50 [3]: > 50 µM (not active)
- IC50 [4]: > 66 µM (inactive)
SMILES: Nc1nc(-c2ccco2)c(-c2ccco2)s1

- IC50 [1]: > 109 µM (not active)
- IC50 [3]: 6.51 µM (active)
- IC50 [5]: 21.2 µM (active)
SMILES: O=C(CSc1nnc(SCC(=O)c2ccco2)s1)c1ccco1

- IC50 [1]: 14 µM (not active)
- IC50 [3]: 20.6 µM (active)
SMILES: O=S(=O)(NCC(O)COCc1ccco1)c1cccs1 (configuration not stated)

Continued, compound first:

SMILES: CCOC(=O)Cc1cc(O)n2nc(-c3ccc(C)cc3)cc2n1
- IC50 [1]: 46.7 µM (not active)
- IC50 [3]: 6.5 µM (active)
- IC50 [5]: 13.9 µM (active)

SMILES: Cc1ccc2nc(N(CCCN(C)C)C(=O)c3cc4ccccc4oc3=O)sc2c1
- EC50 [6]: > 60 µM (not active)
- EC50 [7]: < 0.1 µM (active)
- EC50 [8]: 0.116 µM (active)

SMILES: COc1ccc(C(=O)Nc2ccc3ccccc3n2)c(OC)c1OC
- IC50 [9]: 6.1 µM (active)
- IC50 [10]: > 100 µM (inactive)
- AC50 [11]: 7.06 µM (active)
- AC50 [12]: > 52 µM (inactive)
- IC50 [13]: 2.95 µM (active)
- AC50 [14]: 6.75 µM (active)
- AC50 [15]: > 52 µM (inactive)
- IC50 [16]: 2.37 µM (active)

SMILES: COc1ccc(S(=O)(=O)N(C)C[C@H]2Oc3c(NC(=O)Nc4ccc(C(F)(F)F)cc4)cccc3C(=O)N([C@@H](C)CO)C[C@H]2C)cc1
- AC50 [17]: 7.04 µM (active)
- AC50 [18]: 66.2 µM (active)
- AC50 [19]: 7.67 µM (active)
- AC50 [20]: 51 µM (active)
